The values below come from US8003695B2 (Chroma Therapeutics Ltd., priority 2006, dated 2011).

For test [1], the target named is T1, IKBKB (IKKβ) (Homo sapiens, UniProt O14920).
T1 construct: purchased Invitrogen (Paisley, UK)
T1 sequence (O14920 1-756): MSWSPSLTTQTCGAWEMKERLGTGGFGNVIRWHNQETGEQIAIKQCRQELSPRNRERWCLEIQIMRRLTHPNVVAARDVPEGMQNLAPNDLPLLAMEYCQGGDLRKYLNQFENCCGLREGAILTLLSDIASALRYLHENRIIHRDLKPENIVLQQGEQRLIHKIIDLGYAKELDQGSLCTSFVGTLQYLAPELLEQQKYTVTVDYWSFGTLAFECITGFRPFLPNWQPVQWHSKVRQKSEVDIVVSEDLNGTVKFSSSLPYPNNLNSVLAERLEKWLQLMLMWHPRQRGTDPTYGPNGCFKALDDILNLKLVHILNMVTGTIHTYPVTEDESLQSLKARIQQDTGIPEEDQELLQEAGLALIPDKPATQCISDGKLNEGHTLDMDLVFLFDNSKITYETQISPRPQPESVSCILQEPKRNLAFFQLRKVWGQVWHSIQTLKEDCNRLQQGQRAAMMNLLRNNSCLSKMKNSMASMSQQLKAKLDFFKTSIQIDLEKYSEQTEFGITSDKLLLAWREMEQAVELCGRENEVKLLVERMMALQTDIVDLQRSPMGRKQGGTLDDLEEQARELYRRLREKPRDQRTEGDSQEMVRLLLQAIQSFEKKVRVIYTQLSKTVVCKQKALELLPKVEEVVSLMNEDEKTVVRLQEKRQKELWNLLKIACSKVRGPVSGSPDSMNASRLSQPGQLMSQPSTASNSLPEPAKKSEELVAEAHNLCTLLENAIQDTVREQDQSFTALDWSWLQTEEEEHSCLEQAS
The test is described as follows: IKKβ Enzyme Assay (Z'-LYTE, Invitrogen). The note with it: ATP at or close to Km; read-out: Inhibitor activity versus IKKβ. Format: biochemical. The method, boiled down:
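Z'-LYTE FRET assay with 0.9-8.0 ng human IKBKB, 2 μM Ser/Thr 05 peptide and ATP at or near Km in HEPES pH 7.5, 60 min at room temperature, then 60 min development. Coumarin/fluorescein emission ratio read; duplicate nine-step ⅓-log series from 10 μM; IC50 from sigmoidal fit.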

The test system of test [2] is THP-1 cells. The test is described as follows: LPS-Stimulation of THP-1 Cells, TNF-α release. Format: cell-based. The following applies: Homo sapiens, LPS 1 μg/ml, 6 hrs, read-out: Inhibitor activity versus THP-1 TNFα release. Here is the method:
LPS-Stimulation of THP-1 Cells
THP-1 cells were plated in 100 μl at a density of 4×10^4 cells/well in V-bottomed 96 well tissue culture treated plates and incubated at 37° C. in 5% CO2 for 16 hrs. 2 hrs after the addition of the inhibitor in 100 μl of tissue culture media, the cells were stimulated with LPS (E. coli strain 005:85, Sigma) at a final concentration of 1 μg/ml and incubated at 37° C. in 5% CO2 for 6 hrs. TNF-α levels were measured from cell-free supernatants by sandwich ELISA (R&D Systems #QTA00B)

Test [3] relates to human whole blood. Briefly: LPS-Stimulation of Human Whole Blood, TNF-α release. The following applies: LPS 100 ng/ml, 6 hrs, read-out: Inhibitor activity versus human whole blood TNFα release. Format: cell-based. Here is the method: LPS-Stimulation of Human Whole Blood
Whole blood was taken by venous puncture using heparinised vacutainers (Becton Dickinson) and diluted in an equal volume of RPMI1640 tissue culture media (Sigma). 100 μl was plated in V-bottomed 96 well tissue culture treated plates. 2 hrs after the addition of the inhibitor in 100 μl of RPMI1640 media, the blood was stimulated with LPS (E. coli strain 005:B5, Sigma) at a final concentration of 100 ng/ml and incubated at 37° C. in 5% CO2 for 6 hrs. TNF-α levels were measured from cell-free supernatants by sandwich ELISA (R&D Systems #QTA00B)

Each structure is given as a SMILES string. pIC50: −log10 of the molar value.

As to `CC(C)C[C@H](NCc1ccc(-c2cc(C(N)=O)c(NC(N)=O)s2)cc1)C(=O)OC1CCCC1` [Example 2, Cyclopentyl N-{4-[4-carbamoyl-5-(carbamoylamino)-2-thienyl]benzyl}-L-leucinate], the pIC50 in test [1] is over 6.00; in test [2], under 5.30; in test [3], 5.30 to 6.00.
In the same order, the values of `NC(=O)Nc1sc(-c2ccc(CN[C@@H](C(=O)OC3CCCC3)c3ccccc3)cc2)cc1C(N)=O` [Example 4, Cyclopentyl (2R)-({4-[4-carbamoyl-5-(carbamoylamino)-2-thienyl]benzyl}amino)(phenyl)acetate] are over 6.00, under 5.30 and 5.30 to 6.00.
As for `CC(C)C[C@H](NCc1cccc(-c2cc(C(N)=O)c(NC(N)=O)s2)c1)C(=O)OC1CCCC1` [Example 8, Cyclopentyl N-{3-[4-carbamoyl-5-(carbamoylamino)-2-thienyl]benzyl}-L-leucinate], the pIC50 in test [1] was over 6.00; in test [2], over 6.00; in test [3], 5.30 to 6.00.
Take `NC(=O)Nc1sc(-c2cccc(CN[C@H](C(=O)OC3CCCC3)c3ccccc3)c2)cc1C(N)=O` [Example 9, Cyclopentyl (2S)-({3-[4-carbamoyl-5-(carbamoylamino)-2-thienyl]benzyl}amino)(phenyl)acetate]: the pIC50 in test [1] is over 6.00; in test [2], over 6.00; in test [3], 5.30 to 6.00.
On to `NC(=O)Nc1sc(-c2cccc(CN[C@H](C(=O)OC3CCCC3)C3CCCCC3)c2)cc1C(N)=O` [Example 10, Cyclopentyl (2S)-({3-[4-carbamoyl-5-(carbamoylamino)-2-thienyl]benzyl}amino)(cyclohexyl)acetate], for which the pIC50 in test [1] is 5.30 to 6.00; in test [2] it was over 6.00; in test [3], 5.30 to 6.00.
On to `CC(C)(C)OC[C@H](NCc1cccc(-c2cc(C(N)=O)c(NC(N)=O)s2)c1)C(=O)OC1CCCC1` [Example 11, Cyclopentyl O-tert-butyl-N-{3-[4-carbamoyl-5-(carbamoylamino)thiophen-2-yl]benzyl}-L-serinate], for which the pIC50 in test [1] is over 6.00; in test [2], 5.30 to 6.00; in test [3], 5.30 to 6.00.
As for `C[C@@H](O)[C@H](NCc1cccc(-c2cc(C(N)=O)c(NC(N)=O)s2)c1)C(=O)OC1CCCC1` [Example 13, Cyclopentyl N-{3-[4-carbamoyl-5-(carbamoylamino)thiophen-2-yl]benzyl}-L-threoninate], the pIC50 in test [1], in test [2] and in test [3] was over 6.00 throughout.
In the case of `CC(C)C[C@H](NCc1cccc(-c2cc(C(N)=O)c(NC(N)=O)s2)c1)C(=O)OC(C)(C)C` [Example 14, tert-Butyl N-{3-[4-carbamoyl-5-(carbamoylamino)-2-thienyl]benzyl}-L-leucinate], the pIC50 in test [1] is over 6.00; in test [2], over 6.00; in test [3] it was 5.30 to 6.00.
With `CC(C)C[C@H](NCCc1cccc(-c2cc(C(N)=O)c(NC(N)=O)s2)c1)C(=O)OC1CCCC1` [Example 18, Cyclopentyl N-(2-{3-[4-carbamoyl-5-(carbamoylamino)-2-thienyl]phenyl}ethyl)-L-leucinate], the pIC50 in test [1] is 5.30 to 6.00; in test [2], over 6.00; in test [3], 5.30 to 6.00.
With `NC(=O)Nc1sc(-c2cccc(CCN[C@H](C(=O)OC3CCCC3)c3ccccc3)c2)cc1C(N)=O` [Example 19, Cyclopentyl (2S)-[(2-{3-[4-carbamoyl-5-(carbamoylamino)-2-thienyl]phenyl}ethyl)amino](phenyl)acetate], the pIC50 in test [1], in test [2] and in test [3] was over 6.00 each time.
For the compound `CC(C)C[C@H](NCCc1cc(-c2cc(C(N)=O)c(NC(N)=O)s2)ccc1F)C(=O)OC1CCCC1` [Example 22, Cyclopentyl N-(2-{5-[4-carbamoyl-5-(carbamoylamino)thiophen-2-yl]-2-fluorophenyl}ethyl)-L-leucinate], the pIC50 in test [1], in test [2] and in test [3] was 5.30 to 6.00 throughout.
For `CC(C)C[C@H](NC/C=C/c1ccc(-c2cc(C(N)=O)c(NC(N)=O)s2)cc1)C(=O)OC1CCCC1` [Example 29, Cyclopentyl N-[(2E)-3-{4-[4-carbamoyl-5-(carbamoylamino)-2-thienyl]phenyl}Prop-2-en-1-yl]-L-leucinate], the pIC50 in test [1], in test [2] and in test [3] was over 6.00 in each case.
On to `CC(C)C[C@H](NC/C=C/c1ccc(-c2cc(C(N)=O)c(NC(N)=O)s2)cc1F)C(=O)OC1CCCC1` [Example 31, Cyclopentyl N-[(2E)-3-{4-[4-carbamoyl-5-(carbamoylamino)thiophen-2-yl]-2-fluorophenyl}prop-2-en-1-yl]-L-leucinate], for which the pIC50 in test [1], in test [2] and in test [3] was 5.30 to 6.00 each time.
For `CC(C)C[C@H](NC/C=C/c1ccc(-c2cc(C(N)=O)c(NC(N)=O)s2)cc1Cl)C(=O)OC1CCCC1` [Example 32, Cyclopentyl N-[(2E)-3-{4-[4-carbamoyl-5-(carbamoylamino)thiophen-2-yl]-2-chlorophenyl}prop-2-en-1-yl]-L-leucinate], the pIC50 in test [1] was 5.30 to 6.00; in test [2], over 6.00; in test [3] it was 5.30 to 6.00.
For the compound `Cc1cc(/C=C/CN[C@@H](CC(C)C)C(=O)OC2CCCC2)ccc1-c1cc(C(N)=O)c(NC(N)=O)s1` [Example 33, Cyclopentyl N-[(2E)-3-{4-[4-carbamoyl-5-(carbamoylamino)thiophen-2-yl]-3-methylphenyl}prop-2-en-1-yl]-L-leucinate], the pIC50 in test [1] is under 5.30; in test [2] it was over 6.00; in test [3] it was 5.30 to 6.00.
Consider `NC(=O)Nc1sc(-c2ccc(/C=C/CN[C@H](C(=O)OC3CCCC3)c3ccccc3)cc2)cc1C(N)=O` [Example 41, Cyclopentyl (2S)-{[(2E)-3-{4-[4-carbamoyl-5-(carbamoylamino)-2-thienyl]phenyl}prop-2-en-1-yl]amino}(phenyl)acetate], for which the figures for the pIC50 in test [1], in test [2] and in test [3] were over 6.00, 5.30 to 6.00 and 5.30 to 6.00, respectively.
For `CC(C)C[C@H](NC/C=C/c1ccc(-c2cc(C(N)=O)c(NC(N)=O)s2)cc1)C(=O)OC(C)(C)C` [Example 42, tert-Butyl N-[(2E)-3-{4-[4-carbamoyl-5-(carbamoylamino)-2-thienyl]phenyl}-prop-2-en-1-yl]-L-leucinate], the pIC50 in test [1] is over 6.00; in test [2], 5.30 to 6.00; in test [3] it was under 5.30.
For the compound `CC(C)C[C@H](NC/C=C/c1cccc(-c2cc(C(N)=O)c(NC(N)=O)s2)c1)C(=O)OC1CCCC1` [Example 49, Cyclopentyl N-[(2E)-3-{3-[4-carbamoyl-5-(carbamoylamino)-2-thienyl]phenyl}prop-2-en-1-yl]-L-leucinate], the pIC50 in test [1], in test [2] and in test [3] was over 6.00 throughout.
